# “Also recorded” adds a separate entry of the source. The source made the active and inactive calls. How the calls were made is not given here.
# System: CCRIS mutagenicity, Ames/micronucleus/aberration tests
# Test: CCRIS mutagenicity studies
# [1] = Test System: AMES SALMONELLA TYPHIMURIUM, Strain/Indicator: TA98, Metabolic Activation: NONE, Method: STANDARD PLATE
# [2] = Test System: AMES SALMONELLA TYPHIMURIUM, Strain/Indicator: TA98, Metabolic Activation: RAT, LIVER, S-9, AROCLOR 1254, Method: STANDARD PLATE
# [3] = Test System: AMES SALMONELLA TYPHIMURIUM, Strain/Indicator: TA100, Metabolic Activation: NONE, Method: STANDARD PLATE
# [4] = Test System: AMES SALMONELLA TYPHIMURIUM, Strain/Indicator: TA100, Metabolic Activation: RAT, LIVER, S-9, AROCLOR 1254, Method: STANDARD PLATE
# [5] = Test System: AMES SALMONELLA TYPHIMURIUM, Strain/Indicator: TA98, Metabolic Activation: NONE, Method: PREINCUBATION
# [6] = Test System: AMES SALMONELLA TYPHIMURIUM, Strain/Indicator: TA100, Metabolic Activation: S-9, Method: PREINCUBATION
compound,measurement,setting,value
C[C@]12CC[C@@H]3c4ccc(O)cc4CC[C@H]3[C@@H]1CC[C@@H]2O,mutagenic call,"End Point: IN VITRO CHROMOSOMAL ABERRATIONS, Test System: CHINESE HAMSTER CELL DON (22;XY), Metabolic Activation: NONE",active; positive (ploidy changes)
same,mutagenic call,"End Point: IN VITRO CHROMOSOMAL ABERRATIONS, Test System: CHO CELLS, Metabolic Activation: NONE",active; positive (structural changes)
same,mutagenic call,"End Point: IN VITRO CHROMOSOMAL ABERRATIONS, Test System: HUMAN LYMPHOCYTES, Metabolic Activation: NONE, Method: FISH","active; positive (ploidy changes in chromosomes 1, 9, 16); also recorded: active; positive (ploidy changes in chromosomes 7 and 9)"
same,mutagenic call,"End Point: IN VITRO CHROMOSOMAL ABERRATIONS, Test System: HUMAN PERIPHERAL LYMPHOCYTES, Metabolic Activation: RAT, LIVER, S-9, AROCLOR 1254",inactive; negative
same,mutagenic call,"End Point: IN VITRO CHROMOSOMAL ABERRATIONS, Test System: HUMAN PERIPHERAL LYMPHOCYTES, Metabolic Activation: RAT, LIVER, S-9, PHENOBARBITONE",active; positive
same,mutagenic call,"End Point: IN VITRO CHROMOSOMAL ABERRATIONS, Test System: SYRIAN HAMSTER EMBRYO (SHE) CELLS, Metabolic Activation: NONE",active; positive (ploidy changes)
same,mutagenic call,"End Point: IN VITRO MICRONUCLEUS, Test System: HUMAN PERIPHERAL BLOOD LYMPHOCYTES, Metabolic Activation: NONE",active; positive
same,mutagenic call,"End Point: IN VITRO MICRONUCLEUS, Test System: HUMAN PERIPHERAL LYMPHOCYTES, Metabolic Activation: NONE",active; positive
same,mutagenic call,"End Point: IN VIVO MICRONUCLEUS, Test System: BONE MARROW POLYCHROMATIC ERYTHROCYTES, Species: MOUSE, Strain/Sex: B6C3F1/MALE, FEMALE, Route: IP INJECTION",inactive; negative
same,mutagenic call,"End Point: IN VIVO MICRONUCLEUS, Test System: BONE MARROW POLYCHROMATIC ERYTHROCYTES, Species: MOUSE, Strain/Sex: B6C3F1/MALE, Route: IP INJECTION",inactive; negative
same,mutagenic call,"End Point: IN VIVO MICRONUCLEUS, Test System: BONE MARROW POLYCHROMATIC ERYTHROCYTES, Species: MOUSE, Strain/Sex: CBA/MALE, Route: IP",inactive; negative
same,mutagenic call,"End Point: IN VIVO MICRONUCLEUS, Test System: BONE MARROW POLYCHROMATIC ERYTHROCYTES, Species: RAT, Strain/Sex: F344/MALE, Route: IP INJECTION",inactive; negative
same,mutagenic call,"Test System: AMES SALMONELLA TYPHIMURIUM, Strain/Indicator: TA98, Metabolic Activation: MOUSE, LIVER, S-9, Method: STANDARD PLATE",inactive; negative
same,mutagenic call,[1],inactive; negative
same,mutagenic call,[2],inactive; negative
same,mutagenic call,"Test System: AMES SALMONELLA TYPHIMURIUM, Strain/Indicator: TA100, Metabolic Activation: MOUSE, LIVER, S-9, Method: STANDARD PLATE",inactive; negative
same,mutagenic call,[3],inactive; negative
same,mutagenic call,[4],inactive; negative
same,mutagenic call,"Test System: AMES SALMONELLA TYPHIMURIUM, Strain/Indicator: TA1535, Metabolic Activation: MOUSE, LIVER, S-9, Method: STANDARD PLATE",inactive; negative
same,mutagenic call,"Test System: AMES SALMONELLA TYPHIMURIUM, Strain/Indicator: TA1535, Metabolic Activation: NONE, Method: STANDARD PLATE",inactive; negative
same,mutagenic call,"Test System: AMES SALMONELLA TYPHIMURIUM, Strain/Indicator: TA1535, Metabolic Activation: RAT, LIVER, S-9, AROCLOR 1254, Method: STANDARD PLATE",inactive; negative
same,mutagenic call,"Test System: AMES SALMONELLA TYPHIMURIUM, Strain/Indicator: TA1537, Metabolic Activation: MOUSE, LIVER, S-9, Method: STANDARD PLATE",inactive; negative
same,mutagenic call,"Test System: AMES SALMONELLA TYPHIMURIUM, Strain/Indicator: TA1537, Metabolic Activation: NONE, Method: STANDARD PLATE",inactive; negative
same,mutagenic call,"Test System: AMES SALMONELLA TYPHIMURIUM, Strain/Indicator: TA1537, Metabolic Activation: RAT, LIVER, S-9, AROCLOR 1254, Method: STANDARD PLATE",inactive; negative
same,mutagenic call,"Test System: AMES SALMONELLA TYPHIMURIUM, Strain/Indicator: TA1538, Metabolic Activation: MOUSE, LIVER, S-9, Method: STANDARD PLATE",inactive; negative
same,mutagenic call,"Test System: AMES SALMONELLA TYPHIMURIUM, Strain/Indicator: TA1538, Metabolic Activation: NONE, Method: STANDARD PLATE",inactive; negative
same,mutagenic call,"Test System: AMES SALMONELLA TYPHIMURIUM, Strain/Indicator: TA1538, Metabolic Activation: RAT, LIVER, S-9, AROCLOR 1254, Method: STANDARD PLATE",inactive; negative
same,mutagenic call,"Test System: CHINESE HAMSTER V-79, Strain/Indicator: V-79 (HPRT)/6-THIOGUANINE, Metabolic Activation: NONE",inactive; negative
same,mutagenic call,"Test System: CHINESE HAMSTER V-79, Strain/Indicator: V-79 (HPRT)/6-THIOGUANINE, Metabolic Activation: NONE, Method: SUSPENSION/PLATE",active; positive
same,mutagenic call,"Test System: UDS RAT HEPATOCYTES, Strain/Indicator: THY INCORP (18-20 HR), Metabolic Activation: NONE, Method: LIQUID SCINTILLATION COUNTING",inactive; negative
O=C1CN(CCN2CC(=O)N(CN3CCOCC3)C(=O)C2)CC(=O)N1CN1CCOCC1,mutagenic call,"Test System: AMES SALMONELLA TYPHIMURIUM, Strain/Indicator: TA97, Metabolic Activation: NONE, Method: PREINCUBATION",inactive; negative
same,mutagenic call,"Test System: AMES SALMONELLA TYPHIMURIUM, Strain/Indicator: TA97, Metabolic Activation: S-9, Method: PREINCUBATION",inactive; negative
same,mutagenic call,[5],active; positive
same,mutagenic call,"Test System: AMES SALMONELLA TYPHIMURIUM, Strain/Indicator: TA98, Metabolic Activation: S-9, Method: PREINCUBATION",inactive; negative
same,mutagenic call,"Test System: AMES SALMONELLA TYPHIMURIUM, Strain/Indicator: TA100, Metabolic Activation: NONE, Method: PREINCUBATION",inactive; negative
same,mutagenic call,[6],inactive; negative
same,mutagenic call,"Test System: AMES SALMONELLA TYPHIMURIUM, Strain/Indicator: TA102, Metabolic Activation: NONE, Method: PREINCUBATION",active; positive
same,mutagenic call,"Test System: AMES SALMONELLA TYPHIMURIUM, Strain/Indicator: TA102, Metabolic Activation: S-9, Method: PREINCUBATION",inactive; negative
O=[N+]([O-])c1ccc2cccc3c2c1CC3,mutagenic call,[1],active; positive
NC(Cc1ccc(O)cc1)C(=O)O (stereo not given),mutagenic call,[1],inactive; negative
same,mutagenic call,[2],inactive; negative
same,mutagenic call,[3],inactive; negative
same,mutagenic call,[4],inactive; negative
O=[N+]([O-])c1cc([N+](=O)[O-])c2c3ccccc3c3cccc4ccc1c2c43,mutagenic call,[1],active; positive
COc1cccc2cccnc12,mutagenic call,[6],inactive; negative
CNC(=O)C=Cc1ccc([N+](=O)[O-])o1,mutagenic call,[5],active; positive
CC(=O)O[C@H]1CC[C@]2(C)[C@H]3CC[C@]4(C)[C@@H]([C@H](C)CCCC(C)C)CC[C@H]4[C@@H]3C[C@@H]3N(N4C(=O)c5ccccc5C4=O)[C@@]32C1 (stereo not given in full),mutagenic call,"Test System: AMES SALMONELLA TYPHIMURIUM, Strain/Indicator: TA97A, Metabolic Activation: NONE, Method: STANDARD PLATE",active; positive
same,mutagenic call,"Test System: AMES SALMONELLA TYPHIMURIUM, Strain/Indicator: TA97A, Metabolic Activation: RAT, LIVER, S-9, AROCLOR 1254, Method: STANDARD PLATE",active; positive
same,mutagenic call,[1],active; positive
same,mutagenic call,[3],active; positive
same,mutagenic call,[4],active; positive
same,mutagenic call,"Test System: AMES SALMONELLA TYPHIMURIUM, Strain/Indicator: TA102, Metabolic Activation: NONE, Method: STANDARD PLATE",inactive; negative
same,mutagenic call,"Test System: AMES SALMONELLA TYPHIMURIUM, Strain/Indicator: TA102, Metabolic Activation: RAT, LIVER, S-9, AROCLOR 1254, Method: STANDARD PLATE",active; positive
same,mutagenic call,"Test System: AMES SALMONELLA TYPHIMURIUM, Strain/Indicator: TA104, Metabolic Activation: NONE, Method: STANDARD PLATE",active; positive
same,mutagenic call,"Test System: AMES SALMONELLA TYPHIMURIUM, Strain/Indicator: TA104, Metabolic Activation: RAT, LIVER, S-9, AROCLOR 1254, Method: STANDARD PLATE",active; positive

# — PubChem BioAssay AID1259407 (Chemical Carcinogenesis Research Information System (CCRIS), 2018)
